For experiment [1], the target named is T1, KRAS(G12C) (Homo sapiens, UniProt P01116, G12C). As to the kind of experiment: KRAS(G12C) Western blot protein degradation assay in LU65A cells. It is filed as cell-based. Also noted: LU65A human lung cancer cell line, which expresses KRAS(G12C); host or cells: LU65A. The following applies: 6 hr. Here is the method:
The following cancer cell lines were employed: BT-474 human breast carcinoma (ATCC, #HTB-20); MIA PaCa-2 human pancreatic carcinoma [2 copies KRAS(G12C)](ATCC, #CRL-1420); NCI-H23 human non-small cell lung cancer [1 copy KRAS(G12C)](ATCC, #CRL-5800); NCI-H358 human non-small cell lung cancer [1 copy KRAS(G12C)](ATCC, #CRL-5807); LU65A human lung carcinoma (Pharmaron, Beijing, China). Cell lines were cultured essentially according to ATCC and Pharmaron recommendations.
KRAS(G12C) Western Blot Protein Degradation Assay
The MIA PaCa-2 human pancreatic carcinoma cell line and LU65A human lung cancer cell line, which expresses KRAS(G12C), were seeded in 6- or 12-well tissue culture plates, and after 1 hr, test compounds were added at various concentrations and incubated at 37° C./5% CO2 for 48 hr (MIA Paca-2) and 6 hr (LU65A) respectively. Cells were then washed with cold PBS, aspirated and cold RIPA buffer containing a protease/phosphatase inhibitor cocktail was added to lyse cells. After centrifugation, the total protein concentrations of cell lysates were determined using the BCA protein assay. Samples were normalized for equivalent protein concentrations, 5×SDS-PAGE loading buffer added and denatured at 100° C. for 10 min. 20 μl of each sample/well was loaded on a SDS-PAGE gel and electrophoresed for 20 min at 80 V, then 120 V for 1.5 hr. Gels were then electroblotted to nitrocellulose membranes using a wet-transfer method at 250 mA for 2.5 hr. Membranes were incubated with blocking buffer for 1 hr and washed 3 times with TBST for 5 min. Membranes were then incubated with anti-KRAS (Sigma-Aldrich, #SAB1404011) and anti-β-Actin monoclonal antibodies (Cell Signaling Technology, #3700) diluted in blocking buffer at 4° C. overnight per the manufacturer's recommendations. After washing 3 times, blots were incubated with appropriately labeled secondary antibodies for 1 hr at room temperature and washed again. Fluorescence imaging and quantitation was performed using a LI-COR Odyssey. Results was analyzed using GraphPad Prism 7 software. Compound degradation of was determined by the following equation and DC50 values (the concentration at which 50% of the maximal degradation of KRAS occurs) calculated using GraphPad Prism 7 software:
% Inhibition=100−(D−B)/(S−B)*100%. • S: Fluorescence intensity of cells with antibody • D: Fluorescence intensity of compound-treated cells with antibody • B: Fluorescence intensity of cells without antibody
For orientation: In western blotting, separated proteins are transferred to a membrane and probed.

The target of experiment [2] is T1, KRAS(G12C). Description: KRAS(G12C)/SOS1 homogeneous time-resolved fluorescence (HTRF) assay. Also noted: purchased Cisbio 63ADK000CB16PEG. The following applies: absence of GTP, 4° C. for 3 hr, read-out: KRAS (G12C) binding. A digest of the protocol:
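Three-hour incubation at 4 °C of 3-fold compound dilutions (lowest 1.02 nM) with KRAS(G12C), SOS1 and detection reagents, GTP absent. Disruption of the KRAS(G12C)/SOS1 complex detected by time-resolved fluorescence.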
In general terms: TR-FRET usually uses a lanthanide donor and a delayed reading to cut background.

Experiment [3] has as its system MIA PaCa-2 human pancreatic carcinoma. Description: MIA PaCa-2 CCK-8 proliferation assay. In kind it is cell-based. The note with it: MIA PaCa-2 cells. A digest of the protocol: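 Proliferation of mutant-KRAS(G12C) cells (2 copies in MIA PaCa-2, single copy in NCI-H358/NCI-H23) measured with CCK-8 after treatment across 20 μM–1.02 nM; inhibition expressed relative to vehicle-treated wells after subtracting no-cell background.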
On the technique in general: Formazan colour is commonly taken as a measure of viable cells.

Some results are limits rather than exact numbers.

T1 sequence (P01116 1-188 isoform P01116-2 G12C): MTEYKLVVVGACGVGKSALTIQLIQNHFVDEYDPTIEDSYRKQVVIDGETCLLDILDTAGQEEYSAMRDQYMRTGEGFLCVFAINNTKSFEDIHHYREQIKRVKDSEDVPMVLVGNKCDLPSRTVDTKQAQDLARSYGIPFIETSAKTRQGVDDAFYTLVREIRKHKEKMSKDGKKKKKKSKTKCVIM

For `C=CC(=O)N1CCN(c2nc(OC[C@@H]3CC[C@H](CN4CCN(C(=O)C5CCN(Cc6ccc(-n7c(C(=O)NCC)nnc7-c7cc(CC)c(O)cc7O)cc6)CC5)CC4)N3C)nc3c2CCN(c2cccc4cccc(Cl)c24)C3)C[C@@H]1CC#N` [Compound 244, 4-(4-{[4-(4-{[(2R,5S)-5-({[7-(8-chloronaphthalen-1-yl)-4-[(3S)-3-(cyanomethyl)-4-(prop-2-enoyl)piperazin-1-yl]-5H,6H,8H-pyrido[3,4-d]pyrimidin-2-yl]oxy}methyl)-1-methylpyrrolidin-2-yl]methyl}piperazine-1-carbonyl)piperidin-1-yl]methyl}phenyl)-N-ethyl-5-(5-ethyl-2,4-dihydroxyphenyl)-1,2,4-triazole-3-carboxamide], at KRAS(G12C) [1], the DC50 – broadly, the concentration at which degradation of the target reaches its halfway point – lay within 100 to 1000 nM. Moreover, on KRAS(G12C) [2], the IC50 is below 100 nM. The EC50 (usually the concentration at which the effect is half-maximal) in experiment [3] (Homo sapiens, MIA PaCa-2, 72 h) was below 100 nM.
On to `C=CC(=O)N1CCN(c2nc(OC[C@@H]3CC[C@H](CN4CCN(C(=O)C5CCN(Cc6ccc(-n7c(O)nnc7-c7cc(CC)c(O)cc7O)cc6)CC5)CC4)N3C)nc3c2CCN(c2cccc4cccc(Cl)c24)C3)C[C@@H]1CC#N` [Compound 245, 2-[(2S)-4-[7-(8-chloronaphthalen-1-yl)-2-{[(2S,5R)-5-({4-[1-({4-[3-(5-ethyl-2,4-di hydroxyphenyl)-5-hydroxy-1,2,4-triazol-4-yl]phenyl}methyl)piperidine-4-carbonyl]piperazin-1-yl}methyl)-1-methylpyrrolidin-2-yl]methoxy}-5H,6H,8H-pyrido [3,4-d]pyrimidin-4-yl]-1-(prop-2-enoyl)piperazin-2-yl]acetonitrile], for which the DC50 at KRAS(G12C) [1] was above 1000 nM. The IC50 on KRAS(G12C) [2] is below 100 nM. Moreover, in experiment [3] (Homo sapiens, MIA PaCa-2, 72 h), the EC50 lay within 100 to 1000 nM.
Taken in the same sequence, the figures for `C=CC(=O)N1CCN(c2nc(OC[C@@H]3C[C@H](N4CCC(C(=O)N5CCN(Cc6ccc(-n7c(O)nnc7-c7cc(C(C)C)c(O)cc7O)cc6)CC5)CC4)CN3C)nc3c2CCN(c2cccc4ccccc24)C3)C[C@@H]1CC#N` [Compound 246, 2-[(2S)-4-(2-{[(2S,4S)-4-{4-[4-({4-[3-(2,4-dihydroxy-5-isopropylphenyl)-5-hydro-xy-1,2,4-triazol-4-yl]phenyl}methyl)piperazine-1-carbonyl]piperidin-1-yl}-1-methylpyrrolidin-2-yl]methoxy}-7-(naphthalen-1-yl)-5H,6H,8H-pyrido[3,4-d]pyrimidin-4-yl)-1-(prop-2-enoyl)piperazin-2-yl]acetonitrile] were above 1000 nM, below 100 nM and 100 to 1000 nM.
Taken in the same sequence, the figures for `C=CC(=O)N1CCN(c2nc(OC[C@@H]3C[C@H](N4CCC(C(=O)N5CCN(Cc6ccc(-n7c(O)nnc7-c7cc(C)c(O)cc7O)cc6)CC5)CC4)CN3C)nc3c2CCN(c2cccc4ccccc24)C3)C[C@@H]1CC#N` [Compound 247, 2-[(2S)-4-(2-{[(2S,4S)-4-{4-[4-({4-[3-(2,4-dihydroxy-5-methylphenyl)-5-hydroxy-1,2,4-triazol-4-yl]phenyl}methyl)piperazine-1-carbonyl]piperidin-1-yl}-1-methylpyrrolidin-2-yl]methoxy}-7-(naphthalen-1-yl)-5H,6H,8H-pyrido[3,4-d]pyrimidin-4-yl)-1-(prop-2-enoyl)piperazin-2-yl]acetonitrile] were above 1000 nM, below 100 nM and above 1000 nM.
Taken in the same sequence, the figures for `C=CC(=O)N1CCN(c2nc(OC[C@@H]3C[C@H](N4CCC5(CCN(Cc6ccc(-n7c(O)nnc7-c7cc(C(C)C)c(O)cc7O)cc6)CC5)CC4)CN3C)nc3c2CCN(c2cccc4ccccc24)C3)C[C@@H]1CC#N` [Compound 248, 2-[(2S)-4-(2-{[(2S,4S)-4-[9-({4-[3-(2,4-dihydroxy-5-isopropylphenyl)-5-hydroxy-1,2,4-triazol-4-yl]phenyl}methyl)-3,9-diazaspiro[5.5]undecan-3-yl]-1-methylpyrrolidin-2-yl]methoxy}-7-(naphthalen-1-yl)-5H,6H,8H-pyrido[3,4-d]pyrimidin-4-yl)-1-(prop-2-enoyl)piperazin-2-yl]acetonitrile] were 100 to 1000 nM, 100 to 1000 nM and 100 to 1000 nM.
Compound `C=CC(=O)N1CCN(c2nc(OCCN3CCC(C(=O)N4CCN(Cc5ccc(-n6c(C(=O)NCC(F)(F)F)nnc6-c6cc(C)c(O)cc6O)cc5)CC4)CC3)nc3c2CCN(c2cccc4cccc(Cl)c24)C3)C[C@@H]1CC#N` [Compound 250, (S)-4-(4-((4-(1-(2-((4-(4-acryloyl-3-(cyanomethyl)piperazin-1-yl)-7-(8-chloronaphthalen-1-yl)-5,6,7,8-tetrahydropyrido[3,4-d]pyrimidin-2-yl)oxy)ethyl)piperidine-4-carbonyl)piperazin-1-yl)methyl)phenyl)-5-(2,4-dihydroxy-5-methylphenyl)-N-(2,2,2-trifluoroethyl)-4H-1,2,4-triazole-3-carboxamide] had a DC50 on KRAS(G12C) [1] above 1000 nM. Further, on KRAS(G12C) [2], the IC50 was below 100 nM. The compound further had an EC50 in experiment [3] (72 hr) of 100 to 1000 nM.
Turning to `C=CC(=O)N1CCN(c2nc(OCCN3CCC(C(=O)N4CCN(Cc5ccc(-n6c(C(=O)NCC(F)(F)F)nnc6-c6cc(C)c(O)cc6O)cc5)CC4)CC3)nc3c2CCN(c2cccc4cccc(Cl)c24)C3)C[C@@H]1CC#N` [Compound 251, (S)-4-(4-((4-(1-(2-((4-(4-acryloyl-3-(cyanomethyl)piperazin-1-yl)-7-(8-chloronaphthalen-1-yl)-5,6,7,8-tetrahydropyrido[3,4-d]pyrimidin-2-yl)oxy)ethyl)piperidine-4-carbonyl)piperazin-1-yl)methyl)phenyl)-5-(2,4-dihydroxy-5-methylphenyl)-N-(2,2,2-trifluoroethyl)-4H-1,2,4-triazole-3-carboxamide], on KRAS(G12C) [1], the DC50 is above 1000 nM. For the same compound, on KRAS(G12C) [2], the IC50 is below 100 nM. The same compound came in with an EC50 in experiment [3] (72 hr) of 100 to 1000 nM.
Consider `C=CC(=O)N1CCN(c2nc(OC[C@@H]3C[C@H](N4CCN(Cc5ccc(-n6c(O)nnc6-c6cc(C)c(O)cc6O)cc5)CC4)CN3C)nc3c2CCN(c2cccc4cccc(Cl)c24)C3)C[C@@H]1CC#N` [Compound 252, 2-[(2S)-4-[7-(8-chloronaphthalen-1-yl)-2-{[(2S,4S)-4-[4-({4-[3-(2,4-dihydroxy-5-methylphenyl)-5-hydroxy-1,2,4-triazol-4-yl]phenyl}methyl)piperazin-1-yl]-1-methylpyrrolidin-2-yl]methoxy}-5H,6H,8H-pyrido[3,4-d]pyrimidin-4-yl]-1-(prop-2-enoyl)piperazin-2-yl]acetonitrile], for which the DC50 on KRAS(G12C) [1] was above 1000 nM. The IC50 on KRAS(G12C) [2] was below 100 nM. The EC50 in experiment [3] (Homo sapiens, MIA PaCa-2, 72 h) is above 1000 nM.
For `C=CC(=O)N1CCN(c2nc(OC[C@@H]3CC[C@H](CN4CCN(C(=O)C5CCN(Cc6ccc(-n7c(O)nnc7-c7cc(C(C)C)c(O)cc7O)cc6)CC5)CC4)N3C)nc3c2CCN(c2cccc4ccccc24)C3)C[C@@H]1CC#N` [Compound 255, 2-[(2S)-4-(2-{[(2S,5R)-5-({4-[1-({4-[3-(2,4-dihydroxy-5-isopropylphenyl)-5-hydroxy-1,2,4-triazol-4-yl]phenyl}methyl)piperidine-4-carbonyl]piperazin-1-yl}methyl)-1-methylpyrrolidin-2-yl]methoxy}-7-(naphthalen-1-yl)-5H,6H,8H-pyri-do[3,4-d]pyrimidin-4-yl)-1-(prop-2-enoyl)piperazin-2-yl] acetonitrile], the DC50 at KRAS(G12C) [1] lay within 100 to 1000 nM. Further, the IC50 at KRAS(G12C) [2] is below 100 nM. In addition, in experiment [3] (Homo sapiens, MIA PaCa-2, 72 h), the EC50 was 100 to 1000 nM.
